Assay results: patent US20230167073A1 (Teijin Pharma Limited, priority 2020, published 2023)

Molecular target: T1, Human TRPC6 (Homo sapiens, UniProt Q9Y210)
T1 construct: expressed in transfected cells
T1 sequence (Q9Y210 1-931): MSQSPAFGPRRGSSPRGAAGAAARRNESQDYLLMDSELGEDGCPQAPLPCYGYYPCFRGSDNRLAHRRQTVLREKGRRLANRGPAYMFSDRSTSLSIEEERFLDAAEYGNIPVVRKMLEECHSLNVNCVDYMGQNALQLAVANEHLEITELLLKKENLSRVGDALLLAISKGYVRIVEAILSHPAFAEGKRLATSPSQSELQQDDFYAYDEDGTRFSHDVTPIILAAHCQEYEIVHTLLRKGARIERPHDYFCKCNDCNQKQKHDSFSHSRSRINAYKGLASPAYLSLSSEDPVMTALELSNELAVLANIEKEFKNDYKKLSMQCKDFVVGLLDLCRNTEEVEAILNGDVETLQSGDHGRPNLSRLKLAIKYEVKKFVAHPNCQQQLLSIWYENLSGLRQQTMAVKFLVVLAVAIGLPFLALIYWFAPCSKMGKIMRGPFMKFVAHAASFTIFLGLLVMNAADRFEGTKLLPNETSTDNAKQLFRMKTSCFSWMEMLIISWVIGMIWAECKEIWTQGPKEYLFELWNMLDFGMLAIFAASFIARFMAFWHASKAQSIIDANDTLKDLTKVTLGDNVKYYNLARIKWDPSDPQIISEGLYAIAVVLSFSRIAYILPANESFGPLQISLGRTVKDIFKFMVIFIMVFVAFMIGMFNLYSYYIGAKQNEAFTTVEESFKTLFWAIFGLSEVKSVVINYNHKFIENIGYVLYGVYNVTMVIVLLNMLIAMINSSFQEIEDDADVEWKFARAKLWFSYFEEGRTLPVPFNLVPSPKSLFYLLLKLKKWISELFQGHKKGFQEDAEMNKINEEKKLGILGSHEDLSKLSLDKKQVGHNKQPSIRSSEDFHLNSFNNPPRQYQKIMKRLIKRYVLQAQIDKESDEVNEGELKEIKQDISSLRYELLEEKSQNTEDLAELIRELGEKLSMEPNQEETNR
Assay: Evaluation of TRPC6 channel inhibitory activity (1), FLIPR Calcium 5 Assay Kit, OAG stimulation (Compound Nos. 1-1293)
Type: cell-based
Details: Human TRPC6 stably-expressing cells, OAG 30 μM, FLIPR Calcium 5 Assay Kit; read-out: Inhibitory activity (pIC50 class) (converted)
In short: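 Stable human TRPC6 line; fluorescent Ca2+ dye loading, then 20 min compound exposure before 30 μM OAG trigger. Peak-minus-baseline signal converted to % inhibition against untreated and unstimulated wells; potency given as pIC50 band.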

IC50 | Structure (SMILES)
0.01 to 1 µM | Cn1nc(C2CCOCC2)cc1Oc1cc(F)ccc1-c1ncc(CN)cn1 [compound 1007, [2-[4-fluoro-2-[2-methyl-5-(oxan-4-yl)pyrazol-3-yl]oxyphenyl]pyrimidin-5-yl]methanamine]
< 0.01 µM | N#Cc1ccc(-c2ncc(CCN)cn2)c(Oc2cc(C3CC3)nn2CC(F)(F)F)c1 [compound 379, 4-[5-(2-aminoethyl)pyrimidin-2-yl]-3-[5-cyclopropyl-2-(2,2,2-trifluoroethyl)pyrazol-3-yl]oxybenzonitrile]
< 0.01 µM | Cn1nc(-c2ccccc2)c(F)c1Oc1cc(C#N)ccc1-c1ncc(CCN)cn1 [compound 360, 4-[5-(2-aminoethyl)pyrimidin-2-yl]-3-(4-fluoro-2-methyl-5-phenylpyrazol-3-yl)oxybenzonitrile]
0.01 to 1 µM | Cn1nc(-c2ccccc2)cc1Oc1cc(C#N)ccc1-n1cc(N2CCNCCC2=O)cn1 [Compound 219, 3-(2-Methyl-5-phenylpyrazol-3-yl)oxy-4-[4-(7-oxo-1,4-diazepan-1-yl)pyrazol-1-yl]benzonitrile]
< 0.01 µM | Cn1nc(-c2cccc(F)c2)cc1Oc1cc(C#N)ccc1-c1ccc([C@H](O)CN)cn1 [compound 403, 4-[5-[(1S)-2-amino-1-hydroxyethyl]pyridin-2-yl]-3-[5-(3-fluorophenyl)-2-methylpyrazol-3-yl]oxybenzonitrile]
< 0.01 µM | N#Cc1ccc(-c2ncc(CCN)cn2)c(Oc2cnn(-c3ccccn3)c2)c1 [compound 912, 4-[5-(2-aminoethyl)pyrimidin-2-yl]-3-(1-pyridin-2-ylpyrazol-4-yl)oxybenzonitrile]
0.01 to 1 µM | Cc1nc(OCCCF)cc(Oc2cc(C#N)ccc2-c2ccc(CCN)cc2)n1 [Compound 36, 4-[4-(2-aminoethyl)phenyl]-3-[6-(3-fluoropropoxy)-2-methylpyrimidin-4-yl]oxybenzonitrile]
< 0.01 µM | Cn1nc(N2CCCC2)cc1Oc1cc(C#N)ccc1-c1ccc(CCN)cn1 [compound 542, 4-[5-(2-aminoethyl)pyridin-2-yl]-3-(2-methyl-5-pyrrolidin-1-ylpyrazol-3-yl)oxybenzonitrile]
> 1 µM | N#Cc1ccc(-c2ncc(CN)cn2)c(Oc2nnc(N3CCCC3)s2)c1 [compound 725, 4-[5-(aminomethyl)pyrimidin-2-yl]-3-[(5-pyrrolidin-1-yl-1,3,4-thiadiazol-2-yl)oxy]benzonitrile]
0.01 to 1 µM | N#Cc1ccc(-c2ncc(CN)cn2)c(C(=O)c2cnn(C3CCOCC3)c2)c1 [compound 1056, 4-[5-(aminomethyl)pyrimidin-2-yl]-3-[1-(oxan-4-yl)pyrazole-4-carbonyl]benzonitrile]
< 0.01 µM | Cc1nn(-c2ccccn2)cc1Oc1cc(C#N)ccc1-c1ncc(CCN)cn1 [compound 832, 4-[5-(2-aminoethyl)pyrimidin-2-yl]-3-(3-methyl-1-pyridin-2-ylpyrazol-4-yl)oxybenzonitrile]
> 1 µM | NCc1cnc(-c2ccc(F)cc2C(=O)c2cnn(CC(F)F)c2)nc1 [compound 1099, [2-[5-(aminomethyl)pyrimidin-2-yl]-5-fluorophenyl]-[1-(2,2-difluoroethyl)pyrazol-4-yl]methanone]
> 1 µM | N#Cc1ccc(-c2ncc(CN)cn2)c(Sc2nnc(N3CCCCC3)s2)c1 [compound 1269, 4-[5-(aminomethyl)pyrimidin-2-yl]-3-[(5-piperidin-1-yl-1,3,4-thiadiazol-2-yl)sulfanyl]benzonitrile]
> 1 µM | Cc1nc(Oc2cc(C#N)ccc2-c2cnn(C3CCNCC3)c2)cc(N2CCOCC2)n1 [Compound 239, 3-(2-methyl-6-morpholin-4-ylpyrimidin-4-yl)oxy-4-(1-piperidin-4-ylpyrazol-4-yl)benzonitrile]
0.01 to 1 µM | Cc1nc(Oc2cc(C#N)ccc2-n2cc([C@@H](O)CN)cn2)cc(N2CC(F)(F)C2)n1 [Compound 236, 4-[4-[(1R)-2-amino-1-hydroxyethyl]pyrazol-1-yl]-3-[6-(3,3-difluoroazetidin-1-yl)-2-methylpyrimidin-4-yl]oxybenzonitrile]
> 1 µM | Cc1nc(Oc2cc(C#N)ccc2-c2nc(C)c(C(O)CN)s2)cc(N2CCOCC2)n1 (stereo not drawn) [Compound 129, 4-[5-(2-amino-1-hydroxyethyl)-4-methyl-1,3-thiazol-2-yl]-3-(2-methyl-6-morpholin-4-ylpyrimidin-4-yl)oxybenzonitrile]
< 0.01 µM | CC(C)c1cc(Oc2cc(C#N)ccc2-c2ccc(CN)cn2)n(C)n1 [compound 362, 4-[5-(aminomethyl)pyridin-2-yl]-3-(2-methyl-5-propan-2-ylpyrazol-3-yl)oxybenzonitrile]
0.01 to 1 µM | N#Cc1ccc(-c2ccc(CCN)cn2)c(Oc2nnc(N3CCCC3)s2)c1 [compound 719, 4-[5-(2-aminoethyl)pyridin-2-yl]-3-[(5-pyrrolidin-1-yl-1,3,4-thiadiazol-2-yl)oxy]benzonitrile]
0.01 to 1 µM | CCCNc1cc(Oc2cc(C#N)ccc2-c2ncc(CN)cn2)nc(C)n1 [compound 632, 4-[5-(aminomethyl)pyrimidin-2-yl]-3-[2-methyl-6-(propylamino)pyrimidin-4-yl]oxybenzonitrile]
0.01 to 1 µM | CC(C)NCc1cnc(-c2ccc(C#N)cc2Oc2cc(-c3ccccn3)nn2C)nc1 [compound 663, 3-(2-methyl-5-pyridin-2-ylpyrazol-3-yl)oxy-4-[5-[(propan-2-ylamino)methyl]pyrimidin-2-yl]benzonitrile]
0.01 to 1 µM | CCc1cc(Oc2cc(C#N)ccc2-c2ncc(OCCN)cn2)n(C)n1 [compound 386, 4-[5-(2-aminoethoxy)pyrimidin-2-yl]-3-(5-ethyl-2-methylpyrazol-3-yl)oxybenzonitrile]
0.01 to 1 µM | Cc1cc(Oc2cc(C#N)ccc2-c2ccc([C@H](O)CN)cn2)cc(-c2nc(C)cs2)n1 [compound 694, 4-[5-[(1S)-2-amino-1-hydroxyethyl]pyridin-2-yl]-3-[2-methyl-6-(4-methyl-1,3-thiazol-2-yl)pyridin-4-yl]oxybenzonitrile]
0.01 to 1 µM | CNC(=O)C(N)c1ccc(-c2ccc(C#N)cc2Oc2cc(C3CC3)nn2C)nc1 (stereo not drawn) [compound 491, 2-amino-2-[6-[4-cyano-2-(5-cyclopropyl-2-methylpyrazol-3-yl)oxyphenyl]pyridin-3-yl]-N-methylacetamide]
< 0.01 µM | Cn1nc(-c2ccccc2)cc1Oc1cc(C#N)ccc1-c1ccc(CCN)cc1 [Compound 115, 4-[4-(2-aminoethyl)phenyl]-3-(2-methyl-5-phenylpyrazol-3-yl)oxybenzonitrile]
0.01 to 1 µM | Cc1nc(Oc2cc(C#N)ccc2-n2cc([C@@H](O)CN)cn2)cc(-c2ccccn2)n1 [compound 352, 4-[4-[(1R)-2-amino-1-hydroxyethyl]pyrazol-1-yl]-3-(2-methyl-6-pyridin-2-ylpyrimidin-4-yl)oxybenzonitrile]
0.01 to 1 µM | CC(C)Nc1cc(Oc2cc(C#N)ccc2-c2ncc(CN)cn2)cnn1 [compound 764, 4-[5-(aminomethyl)pyrimidin-2-yl]-3-[6-(propan-2-ylamino)pyridazin-4-yl]oxybenzonitrile]
< 0.01 µM | N#Cc1ccc(-c2ccc(CCN)cc2)c(Oc2cc(-c3ccccc3)no2)c1 [compound 306, 4-[4-(2-aminoethyl)phenyl]-3-[(3-phenyl-1,2-oxazol-5-yl)oxy]benzonitrile]
